Assay: Gravity vapor sorption (GVS) analysis
Assay type: physicochemical
[1] = at relative humidity (RH) of 80%

Row | water absorbed (GVS) [1] | RH after which the solid starts to deliquesce (GVS) | water absorbed (GVS) (at relative humidity (RH) of 70%) | Compound
1 | less than 2% |  |  | CC(C)[C@@H]1NC(C)(C)N([C@H]2CN[C@]3(CCCCB(O)OC3=O)C2)C1=O [Example 2, (3R,5R)-8-hydroxy-3-((S)-4-isopropyl-2,2-dimethyl-5-oxoimidazolidin-1-yl)-7-oxa-1-aza-8-boraspiro[4.7]dodecan-6-one]
2 | less than 2% |  |  | CC(C)[C@H](N)C(=O)N[C@H]1CN[C@]2(CCCCB(O)OC2=O)C1 [Example 3, (S)-2-amino-N-((3R,5R)-8-hydroxy-6-oxo-7-oxa-1-aza-8-boraspiro[4.7]dodecan-3-yl)-3-methylbutanamide]
3 |  | > 80 % RH | less than 2% | CC(C)[C@H](N)C(=O)N[C@H]1CN[C@]2(CCCCB(O)OC2=O)C1 [Example 1, (S)-2-amino-N-((3R,5R)-8-hydroxy-6-oxo-7-oxa-1-aza-8-boraspiro[4.7]dodecan-3-yl)-3-methylbutanamide]
